Test results from patent publication US5573773A, “Stable highly concentrated formulations of fluorescein derivatives” (Ciba Geigy Corporation, priority 1992, dated 1996).
Like-named read-outs stand apart in the source and are kept apart here.

Legend:
rabbit lens epithelium = test: cytotoxic effect of irradiation of intracellular fluorescein in vivo on rabbit lens epithelium
Procedure: The cytotoxic effect of the irradiation of intracellular fluorescein with […] laser light (argon) is investigated in vivo on rabbit lens epithelium. This is done by first treating both rabbit eyes with Voltaren® eye drops (3 times over 24 hours) and expanding the pupillae with a mydriatic. The rabbits are operated on under a full anaesthetic. After a small incision of the cornea, the anterior chamber of the eye is thoroughly rinsed for 1 minute with sodium chloride solution (to remove natural chamber water), then slowly rinsed with 5 ml of FDA solution (1 ml/min) and filled, thereafter kept for a further 5 minutes and once more rinsed with sodium chloride solution for 1 minute (to remove excess FDA solution). While washing the chamber with FDA solution, sodium chloride solution is dropped onto the cornea (for rapid dilution and removal of the FDA solution flowing back from the chamber). […] Finally, irradiation (0.92 W to 0.64 W) is carded out for 30 seconds, the circular irradiation surface on the plane of the lens being 95 mm^2 (11 mm diameter). […] All investigated irradiation doses (291 mJ/mm^2 to 19 mJ/mm^2) were effective.

rabbit eye cornea = test: cytotoxic effect of irradiation of intracellular fluorescein in vivo on rabbit eye cornea; settings: for lowest effective energy for fading effect: 488 nm argon laser
Procedure: The cytotoxic effect of the irradiation of intracellular fluorescein with 488 nm laser light (argon) is investigated in vivo on rabbit eye cornea. FDA solution is dropped on to the cornea for 10 minutes, followed by washing with physiological sodium chloride solution. Irradiation is afterwards effected. The intensity of florescence on the cornea rises sharply during this time, then slowly falls to zero over about 5 hours after washing. Irradiation of the fluorescing cornea results in black specks the size of which matches the area irradiated by the laser. The lowest effective energy for this fading effect is about 2.4 J/mm^2 with 0.01 mmol/l of FDA and 0.11 J/mm^2 with 0.02 mmol/l of FDA. […] The lower limit of the irradiation energy for this cytotoxic effect is up to 0.38 mJ/mm^2 (5 seconds and 20 seconds) using 0.02 mmol/l of FDA.

[1] = tested on: human T24 carcinoma cells; test: intracellular uptake of fluorescein from FDA dissolved in viscous medium Hymecel; format: cell-based
From the text: Eight minutes after removal of the viscous solution and washing the cells, the intracellular fluorescein concentration is 0.004 to 0.005 mmol/l after 0.01 mmol/l of FDA, 0.007 to 0.009 mmol/l after 0.02 mmol/l of FDA and 0.019 mmol/l after 0.04 mmol/l of FDA.

[2] = tested on: human T24 carcinoma cells; test: intracellular uptake and generation of fluorescein from FDA in T24 carcinoma cells by microscopic fluorimetry
From the text: (§3) After removal of FDA from the tissue culture medium, the generation of fluorescein from the cells can be measured. […] The intensity of fluorescence of intracellular fluorescein fades when the fluorescein is correspondingly excited. The higher the intracellular concentration of fluorescein at a given irradiation energy, the stonger this fading is: the lower level for a fading effect is 0.004 mmol/l of intracellular fluorescein for 71 mJ/mm^2 and 0.002 mmol/l for 560 mJ/mm^2 (irradiation time 120 seconds).

T4 tumour cells = settings: over 10 minutes
From the text: The higher the extracellular concentration of FDA, the higher the resultant intracellular concentration of fluorescein.

living cells = test: uptake by living cells; format: cell-based
From the text: (§1) Fluorescein therefore accumulates temporarily in the cells. […] Intensive irradiation reduces the intensity of fluorescein.
(§2) Loading the intracellular space of cells with fluorescein is, however, complicated by the fact that FDA is also hydrolysed by esterases in the extracellular fluid. The amount of FDA available for cell loading is thereby reduced. For reproducible clinical use it is therefore advisable to lower the concentration of extracellular esterases. This is conveniently done by washing the environment of the particular area which it is desired to treat. A further problem may arise from the fact that the FDA diffuses away from the site of actual use and, as a consequence thereof, is also taken up by cells that are not to be treated at all. This problem can be countered by optimising the local application of FDA as well as the defined irradiation, typically by using a particularly well focussed beam of light.

in vitro = settings: human, t24 carcinoma cells
From the text: as §3

[3] = tested on: human T24 carcinoma cells; test: fading of intracellular fluorescein on irradiation in T24 carcinoma cells; format: cell-based
[4] = tested on: human T24 carcinoma cells; test: cells; settings: read-out: cells killed
From the text: The cytoxic action of irradiation (excitation 480 nm) of intracellular fluorescein from FDA is investigated using tissue culture of human T24 carcinoma cells. This is done by fluorometric determination of the intracellular fluorescein concentration under a microscope (excitation 480 nm; emission 520 nm) in single cells and the vitality via the uptake of propidium iodide.

uptake by living cells = format: cell-based; settings: living cells; intracellular; read-out: half-life of fluorescein within a cell
From the text: as §1, §2

## CC(=O)Oc1ccc2c(c1)Oc1cc(OC(C)=O)ccc1C21OC(=O)c2ccccc21 [FDA, fluorescein diacetate]
Rabbit lens epithelium; 291 mJ/mm^2 to 19 mJ/mm^2
  effectiveness of investigated irradiation doses: effective
Rabbit lens epithelium; FDA solution in anterior chamber
  fluorescence of the cornea surface near the incision site: fluoresces minimally
Rabbit lens epithelium; after irradiation
  fluorescence of the lens surface after irradiation: no longer fluoresces
Rabbit lens epithelium; before irradiation, epifluorescent stereomicroscope
  fluorescence of the anterior lens capsule: constant marked increase of fluorescence
Rabbit lens epithelium; sacrificed about 18 hours later, irradiation 30 seconds
  histological evaluation of lens in irradiation field: total necrosis of the lens epithelium and microscopically unchanged basal membrane, pyknotic nuclear residues and edematous swelling of the anterior subcapsular area of the lens
Rabbit eye cornea; 0.01 mmol/l of FDA
  lowest effective energy for fading effect: about 2.4 J/mm^2
Rabbit eye cornea; 0.02 mmol/l of FDA, 5 seconds and 20 seconds
  lower limit of irradiation energy for cytotoxic effect: up to 0.38 mJ/mm^2
Rabbit eye cornea; 0.02 mmol/l of FDA
  lowest effective energy for fading effect: 0.11 J/mm^2
Rabbit eye cornea; FDA solution dropped on cornea for 10 minutes
  time for cornea fluorescence to fall to zero after washing: about 5 hours
Rabbit eye cornea; irradiated fluorescing cornea
  histology of irradiated cornea (black specks): areas of dead epithelial cells in the outermost layer of the cornea
[1]; 0.04 mmol/l of FDA in Hymecel, 8 minutes after removal and washing
  intracellular fluorescein concentration: 0.019 mmol/L
[1]; FDA in Hymecel
  increase in intracellular fluorescein concentration and plateau values versus aqueous medium: approximately match those after incubation of the cells in aqueous medium
[2]; 0.0001 mmol/l of FDA
  intracellular fluorescein concentration: no longer measurable
[2]; 0.001 mmol/l of FDA, after 10 minutes
  intracellular fluorescein concentration: 0.004 mmol/L
[2]; 0.01 mmol/l of FDA, after 10 minutes
  intracellular fluorescein concentration: 0.01 mmol/L
[2]; 0.02 mmol/l of FDA, after 10 minutes
  intracellular fluorescein concentration: 0.015 mmol/L
[2]; 0.04 mmol/l of FDA, after 10 minutes
  intracellular fluorescein concentration: 0.017 mmol/L
[2]; FDA added to medium
  duration of linear rise of intracellular fluorescein concentration: about 4 minutes
  time to approximately plateau values of intracellular fluorescein concentration: about 10 minutes
T4 tumour cells; 1 μm FDA solution
  plateau concentration of intracellular fluorescein: 25 μm
T4 tumour cells; 100 μm FDA solution
  plateau concentration of intracellular fluorescein: 70 μm
Living cells
  uptake by living cells: readily taken up by most living cells

## O=C1OC2(c3ccc(O)cc3Oc3cc(O)ccc32)c2ccccc21 [fluorescein]
[2]; after removal of FDA from the medium
  kinetics order of exclusion of fluorescein from the individual cells: first order kinetics
[2]; pure fluorescein
  uptake of pure fluorescein added to the cells: No uptake can be observed
In vitro
  half-life: 10 to 25 min
[3]; 0.1 mW/mm^2, 1 to 10 minutes
  fading on irradiation for observation: no measurable fading
[3]; 71 mJ/mm^2, irradiation time 120 seconds
  lower level of intracellular fluorescein for a fading effect: 0.004 mmol/L
[3]; 560 mJ/mm^2, irradiation time 120 seconds
  lower level of intracellular fluorescein for a fading effect: 0.002 mmol/L
[4]; 15 s
  cytotoxicity at 7 µM: 50%
  cytotoxicity at 13 µM: 50%
[4]; 2 min
  cytotoxicity at 3 µM: 50%
  cytotoxicity at 5 µM: 50%
Uptake by living cells
  half-life: ~15 min
Living cells
  uptake by living cells: virtually not taken up by living cells
